11 compounds from article PMC4522185 (ChemistryOpen, 2015) can be followed below.

Values after ≈ are worked out from the molar mass of the structure shown. Where two headings read alike, the source gives them in different places.

Data set [1] can be described thus: physchem. As to conditions: pbs, pH 7.4, aqueous buffer.
Data set [2] addresses human 20S proteasome (chymotrypsin-like activity, with PA28 activator) (Homo sapiens, UniProt P28074). In words: fluorogenic suc-LLVY-AMC cleavage. It counts as biochemical.
Data set [3] can be described thus: physchem. To be noted: ch3cn+pbs (1+1), pH 7.4.
The target in data set [4] is T1, Mtb 20S open-gate proteasome (Mycobacterium tuberculosis, UniProt P9WHT9). As to the kind of experiment: biochemical.
T1 sequence (P9WHT9 whole entry): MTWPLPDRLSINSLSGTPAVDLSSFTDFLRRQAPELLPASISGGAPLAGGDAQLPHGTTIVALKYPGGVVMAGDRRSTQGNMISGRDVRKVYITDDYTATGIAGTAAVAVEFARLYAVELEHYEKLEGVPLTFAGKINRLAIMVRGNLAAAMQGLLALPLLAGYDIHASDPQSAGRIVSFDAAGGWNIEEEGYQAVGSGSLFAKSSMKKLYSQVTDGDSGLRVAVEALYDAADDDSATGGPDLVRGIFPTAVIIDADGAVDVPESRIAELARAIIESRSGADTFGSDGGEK
T1 sequence (P9WHU1 whole entry partner): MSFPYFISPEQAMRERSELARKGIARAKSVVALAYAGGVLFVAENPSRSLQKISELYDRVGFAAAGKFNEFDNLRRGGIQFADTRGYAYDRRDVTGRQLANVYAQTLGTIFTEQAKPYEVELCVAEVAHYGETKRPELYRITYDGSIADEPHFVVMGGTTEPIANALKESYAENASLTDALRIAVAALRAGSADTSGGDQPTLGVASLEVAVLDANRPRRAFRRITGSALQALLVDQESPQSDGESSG
Data set [5] addresses T1, Mtb 20S open-gate proteasome. As to the kind of experiment: biochemical. This is another data set of the same source.
Data set [6] is described as follows: physchem. As to conditions: pbs ph 7.4, pH 7.4.
The nature of data set [7]: physchem. To be noted: ch3cn+pbs (1+1), pH 7.4. This is another data set of the same source.
In data set [8] the target is T1, Mtb 20S open-gate proteasome. As to the kind of experiment: biochemical. This is another data set of the same source.
Data set [9] in a line: physchem. To be noted: pbs, pH 7.4, aqueous buffer. This is another data set of the same source.

human 20S proteasome (chymotrypsin-like activity, with PA28 activator), sequence (P28074 60-263): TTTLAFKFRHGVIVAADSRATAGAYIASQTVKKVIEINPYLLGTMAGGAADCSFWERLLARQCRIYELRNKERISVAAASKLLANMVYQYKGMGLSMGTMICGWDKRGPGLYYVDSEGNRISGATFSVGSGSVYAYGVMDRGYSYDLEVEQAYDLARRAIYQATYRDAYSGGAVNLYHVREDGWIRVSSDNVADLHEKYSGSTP
human 20S proteasome (chymotrypsin-like activity, with PA28 activator), sequence (P25786 whole entry partner): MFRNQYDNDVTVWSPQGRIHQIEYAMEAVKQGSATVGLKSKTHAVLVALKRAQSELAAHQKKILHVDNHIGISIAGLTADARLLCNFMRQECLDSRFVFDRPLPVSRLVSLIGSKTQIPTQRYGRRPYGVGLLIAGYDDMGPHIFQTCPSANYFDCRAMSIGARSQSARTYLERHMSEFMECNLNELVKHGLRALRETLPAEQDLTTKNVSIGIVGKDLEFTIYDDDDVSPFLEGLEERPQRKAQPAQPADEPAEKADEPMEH

By solubility is commonly meant how much of the substance goes into solution per volume. A higher solubility goes with much dissolved substance. For orientation: IC50 means the concentration at which inhibition is half-maximal. The low end stands for inhibition by little substance, the high end for a need for much substance. Usually fraction remaining stands for the share of the starting amount still present when the sample was taken. Lower therefore signals a greater loss. Regarding `COc1ncccc1/C=C/c1nsc(=O)o1` [compound 50, (E)-5-(2-(2-Methoxypyridin-3-yl)vinyl)-1,3,4-oxathiazol-2-one], in [1], the solubility at 18 h was 2.1 µM (≈ 0.496 µg/mL). The compound also had an IC50 in [2] of 29500 nM. This compound also had an amount remaining at 24 h, 50 µM in [3] of 97.7%.
`O=c1oc(/C=C/c2ccncc2)ns1` [compound 49, (E)-5-(2-(Pyridin-4-yl)vinyl)-1,3,4-oxathiazol-2-one] showed a solubility at 18 h in data set [1] of 84.7 µM (≈ 17.5 µg/mL). Moreover, the IC50 in data set [2] is 77000 nM; in data set [4] it was 2750 nM. The same compound came in with a fraction remaining at 24 h, 50 µM in [3] of 91.6%.
On the same counts, the results for `O=c1oc(/C=C/c2cccs2)ns1` [compound 51, (E)-5-(2-(Thiophen-2-yl)vinyl)-1,3,4-oxathiazol-2-one] are 22.6 µM (≈ 4.77 µg/mL), 18500 nM, 2100 nM and 97.6%.
With `COc1ccc(/C=C/c2nsc(=O)o2)cc1` [compound 28, (E)-5-(4-Methoxystyryl)-1,3,4-oxathiazol-2-one], the half-inhibitory concentration (IC50) in [5] is 1350 nM; in [2], 8500 nM. The compound further came in with a fraction remaining at 24 h, 50 µM in [6] of 1.5%.
In data set [7], `O=c1oc(-c2cnccn2)ns1` [compound 2] displayed an amount remaining at 24 h, 50 µM of 3.6%. The same compound had an IC50 in data set [8] of 2300 nM. The solubility at 18 h in data set [9] came to 35.1 µM (≈ 6.36 µg/mL).
With `COc1cccc(-c2nsc(=O)o2)c1` [compound 3], the share remaining at 24 h, 50 µM in data set [7] is 15.4%. Further, in data set [8], the IC50 stood at 665 nM. Moreover, the concentration in solution in data set [9] (solubility at 18 h) was 30.9 µM (≈ 6.47 µg/mL).
The compound `O=c1oc(/C=C/c2ccccc2)ns1` [compound 17, (E)-5-Styryl-1,3,4-oxathiazol-2-one] returned a fraction remaining at 24 h, 50 µM in data set [7] of 38.7%. Moreover, the figures for the IC50 in data set [8] and in data set [2] were 420 nM and greater than 100000 nM, respectively. In data set [9], the solubility at 18 h stood at 19.1 µM (≈ 3.92 µg/mL).
The corresponding values for `O=c1oc(C#Cc2ccccc2)ns1` [compound 20, 5-(Phenylethynyl)-1,3,4-oxathiazol-2-one] are 89.6%, 1040 nM, 4200 nM and 24.9 µM (≈ 5.06 µg/mL).
In turn, `O=Cc1ccc(/C=C/c2nsc(=O)o2)o1` [compound 53, (E)-5-(2-(2-Oxo-1,3,4-oxathiazol-5-yl)vinyl)furan-2-carbaldehyde] displayed a solubility at 18 h in data set [1] of 56.1 µM (≈ 12.5 µg/mL). The IC50 in [2] was 3300 nM; in data set [4] it was 735 nM. For the same compound, in data set [3], the share remaining at 24 h, 50 µM was determined as 88.9%.
In [7], `O=C(c1ccccc1)c1nsc(=O)o1` [compound 19, 5-Benzoyl-1,3,4-oxathiazol-2-one] had a fraction remaining at 24 h, 50 µM of 46.8%. Besides, the IC50 was 2250 nM in [8] and 2950 nM in data set [2]. In addition, the concentration in solution in data set [9] (solubility at 18 h) was 5.7 µM (≈ 1.18 µg/mL).
`O=c1oc(/C=C/c2ccsc2)ns1` [compound 52, (E)-5-(2-(Thiophen-3-yl)vinyl)-1,3,4-oxathiazol-2-one] displayed a solubility at 18 h in [1] of 19.7 µM (≈ 4.16 µg/mL). The values for the IC50 in [2] and in data set [4] were 11300 nM and 1150 nM, respectively. Further, the fraction remaining at 24 h, 50 µM in data set [3] was determined as 99.1%.
